Test results reported in patent US7612035B2, “Inhibition of mitogen-activated protein kinase (MAPK) pathway: a selective therapeutic strategy against melanoma” (Van Andel Research Institute, priority 2000, dated 2009).
Entries after “also recorded” stand apart in the source; their conditions may differ. Read-outs that look alike come from different tables or passages of the source. Marks after values point to notes of the source that are not given here.

Tests used:
LOX-IMVI [1] = conditions: mouse, in vivo, ip, cited from earlier work
SK-MEL-2 [2] = conditions: mouse, in vivo, ip, 90 mg/kg/day; cited from earlier work
SK-MEL-5 [3] = conditions: mouse, in vivo, ip, 40 mg/kg/day; cited from earlier work
UACC-62 [4] = conditions: mouse, in vivo, ip, 90 mg/kg/day; cited from earlier work
UACC-257 [5] = conditions: mouse, in vivo, ip, 90 mg/kg/day; cited from earlier work
M14 = conditions: mouse, in vivo, ip, 90 mg/kg/day; cited from earlier work
MALME-3M [6] = conditions: mouse, in vivo, ip, 90 mg/kg/day; cited from earlier work
melanoma xenografts = conditions: mouse, in vivo, ip; cited from earlier work
LOX-IMVI [7] = assay type: cell-based, human; conditions: 72 h, average of four replicates minus background (PA alone or DMSO), LF 0.1 μg/ml with PA, PD98059 20 μM every 24 h, U0126 10 μM single dose
MALME-3M [8] = assay type: cell-based, human; conditions: 72 h, average of four replicates minus background (PA alone or DMSO), LF 0.1 μg/ml with PA, PD98059 20 μM every 24 h, U0126 10 μM single dose
M14-MEL = assay type: cell-based, human; conditions: for % Apoptosis: M14-MEL Melanoma Cells, treatment for 72 hours; for Apoptosis (%) Experiment I: M14-MEL, 72 h, average of four replicates minus background (PA alone or DMSO), LF 0.1 μg/ml with PA, PD98059 20 μM every 24 h, U0126 10 μM single dose
SK-MEL-2 [9] = assay type: cell-based, human; conditions: 72 h, average of four replicates minus background (PA alone or DMSO), LF 0.1 μg/ml with PA, PD98059 20 μM every 24 h, U0126 10 μM single dose
SK-MEL-28 = assay type: cell-based, human; conditions: 72 h, average of four replicates minus background (PA alone or DMSO), LF 0.1 μg/ml with PA, PD98059 20 μM every 24 h, U0126 10 μM single dose
SK-MEL-5 [10] = assay type: cell-based, human; conditions: 72 h, average of four replicates minus background (PA alone or DMSO), LF 0.1 μg/ml with PA, PD98059 20 μM every 24 h, U0126 10 μM single dose
UACC-257 [11] = assay type: cell-based, human; conditions: 72 h, average of four replicates minus background (PA alone or DMSO), LF 0.1 μg/ml with PA, PD98059 20 μM every 24 h, U0126 10 μM single dose
UACC-62 [12] = assay type: cell-based, human; conditions: 72 h, average of four replicates minus background (PA alone or DMSO), LF 0.1 μg/ml with PA, PD98059 20 μM every 24 h, U0126 10 μM single dose
[13] = test system: normal human melanocytes (NHEM); assay type: cell-based; conditions: for % Apoptosis: Normal Melanocytes, treatment for 72 hours; for apoptosis (in words): normal melanocytes
MALME-3M [14] = test: Cell cycle profile by flow cytometry; assay type: cell-based, human; conditions: within 24 hours of treatment
Description: (§1) Cell cycle profiles and DNA content were analyzed by flow cytometry, as previously described (Koo, H.-M. et al. Canc Res 59:6057-6062 (1999)). Total cells including floating cells were harvested, washed in cold PBS and fixed in cold 70% ethanol overnight. The fixed cells were rehydrated in PBS containing 1% fetal bovine serum, washed in PBS, incubated with DNase-free RNase at room temperature for 30 min, and then stained with 50 μg/ml propidium iodide overnight at 4° C. in the dark. The stained samples were analyzed in a FACSCalibur (Becton Dickinson Biosciences) for DNA content and cell cycle profiles.
In most cell types, activation of the MAPK pathway is required for progression through the restriction point in G1 phase of the cell cycle (reviewed in Roussel et al., supra).

[15] = test system: normal human melanocytes (NHEM); test: Cell cycle profile by flow cytometry; assay type: cell-based; conditions: 72 hours with PD98059 (and U0126) or 96 hours with LF
Description: as §1

ERK1 and 2 = test: Active phospho-MAPK immunoblot in MALME-3M cells; assay type: cell-based, human
Description: (§2) Western blot analysis was performed as described previously (Koo et al., 1999, supra). The primary antibodies used were anti-active MAPK from Promega, and anti-ERK1 (K-23) and anti-ERK2 (C-14) from Santa Cruz Biotechnology.

MAPK (ERK) = test: Active phospho-MAPK immunoblot in normal melanocytes; assay type: cell-based, human; conditions: 72 hours with PD98059 (and U0126) or 96 hours with LF
Description: as §2

MDA-MB-435 and MDA-N = test: NCI-ADS growth inhibition, breast carcinoma lines; assay type: cell-based, human; conditions: NCI-ADS breast carcinoma lines MDA-MB-435 and MDA-N
MAPK (ERK1/2) = test: Western blot with phospho-specific anti-ERK antibody in M14-MEL cells; assay type: cell-based, human; conditions: M14-MEL melanoma cells
Description: as §2

[16] = 72 hours with PD98059 (and U0126) or 96 hours with LF

COc1cccc2c1[C@H](CO)N1[C@@H](C#N)[C@@H]3C[C@@H](C(=O)O)[C@H]([C@@H]1C2)N3C [DX-52-1]
Growth delay: %(T − C)/C (LOX-IMVI [1]; 60 mg/kg/day): 389% | Optimal % T/C (LOX-IMVI [1]; 60 mg/kg/day): −100^b % | Regressions Complete (LOX-IMVI [1]; 60 mg/kg/day): 4/6 | Regressions Partial (LOX-IMVI [1]; 60 mg/kg/day): 016 | Growth delay: %(T − C)/C (LOX-IMVI [1]; 90 mg/kg/day): 181% | Optimal % T/C (LOX-IMVI [1]; 90 mg/kg/day): −54% | Regressions Complete (LOX-IMVI [1]; 90 mg/kg/day): 2/10 | Regressions Partial (LOX-IMVI [1]; 90 mg/kg/day): 3/10 | Growth delay: %(T − C)/C (SK-MEL-2 [2]): 118% | Optimal % T/C (SK-MEL-2 [2]): 10 (32) % | Regressions Complete (SK-MEL-2 [2]): 2/6 | Regressions Partial (SK-MEL-2 [2]): 0/6 | day on which the optimal (minimum) T/C was attained (SK-MEL-2 [2]): 10 (32) | Growth delay: %(T − C)/C (SK-MEL-5 [3]): 27% | Optimal % T/C (SK-MEL-5 [3]): 49 (33) % | Regressions Complete (SK-MEL-5 [3]): 0/6 | Regressions Partial (SK-MEL-5 [3]): 0/6 | day on which the optimal (minimum) T/C was attained (SK-MEL-5 [3]): 49 (33) | Growth delay: %(T − C)/C (UACC-62 [4]): 185% | Optimal % T/C (UACC-62 [4]): 18 (34) % | Regressions Complete (UACC-62 [4]): 0/7 | Regressions Partial (UACC-62 [4]): 0/7 | day on which the optimal (minimum) T/C was attained (UACC-62 [4]): 18 (34) | Growth delay: %(T − C)/C (UACC-257 [5]): 35% | Optimal % T/C (UACC-257 [5]): 12 (27) % | Regressions Complete (UACC-257 [5]): 0/6 | Regressions Partial (UACC-257 [5]): 0/6 | day on which the optimal (minimum) T/C was attained (UACC-257 [5]): 12 (27) | Growth delay: %(T − C)/C (M14): 56% | Optimal % T/C (M14): 19 (26) % | Regressions Complete (M14): 0/6 | Regressions Partial (M14): 0/6 | day on which the optimal (minimum) T/C was attained (M14): 19 (26) | Growth delay: %(T − C)/C (MALME-3M [6]): 4% | Optimal % T/C (MALME-3M [6]): 64 (72) % | Regressions Complete (MALME-3M [6]): 0/6 | Regressions Partial (MALME-3M [6]): 0/6 | day on which the optimal (minimum) T/C was attained (MALME-3M [6]): 64 (72) | melanoma xenografts with statistically significant antitumor activity (melanoma xenografts): 5/7

COc1cccc(-c2cc(=O)c3ccccc3o2)c1N [PD98059]
Apoptosis (%) Experiment I (LOX-IMVI [7]): 3.6% | Apoptosis (%) Experiment I (MALME-3M [8]): 47.9% | % Apoptosis (M14-MEL; 20 μM): 38.9% | Apoptosis (%) Experiment I (M14-MEL): 53.0% | Apoptosis (%) Experiment I (SK-MEL-2 [9]): 23.4% | Apoptosis (%) Experiment I (SK-MEL-28): 2.5% | Apoptosis (%) Experiment I (SK-MEL-5 [10]): 9.1% | Apoptosis (%) Experiment I (UACC-257 [11]): 19.7% | Apoptosis (%) Experiment I (UACC-62 [12]): 30.5% | % Apoptosis ([13]; 20 μM): 0% | apoptosis (in words) [13, 16]: no apoptosis was observed | apoptosis (in words) ([13]; PD98059 for 96 hours): apoptosis was not detected | cell cycle progression (MALME-3M [14]): noticeably blocked in the G1 phase | cell cycle response [15]: induced G1 arrest | activation of ERK1 and 2 (ERK1 and 2): inhibited | MAPK (ERK) activation (MAPK (ERK)): inhibited | sensitivity to growth inhibition (MDA-MB-435 and MDA-N): as sensitive as melanoma cell lines

O=C(NOCC1CC1)c1ccc(F)c(F)c1Nc1ccc(I)cc1Cl [PD184352]
% Apoptosis (M14-MEL; 1 μM): 24.5% | % Apoptosis (M14-MEL; 5 μM): 37.3% | % Apoptosis (M14-MEL; 10 μM): 48.8% | % Apoptosis (M14-MEL; 20 μM): 71.0% | potency relative to PD98059 (M14-MEL; apoptosis in M14-MEL, 72 hours): more potent, possibly by several fold | selectivity melanoma cells vs normal human melanocytes (M14-MEL; apoptosis, 72 hours): selectively cytotoxic to human melanoma cells | % Apoptosis ([13]; 2 μM): 0.3% | activation of MAPK (ERK1/2) (MAPK (ERK1/2)): completely blocked

N#CC(=C(/N)Sc1ccccc1N)/C(C#N)=C(\N)Sc1ccccc1N [U0126]
Apoptosis (%) Experiment I (LOX-IMVI [7]): 2.3% | Apoptosis (%) Experiment I (MALME-3M [8]): 48.3% | Apoptosis (%) Experiment I (M14-MEL): 36.0% | Apoptosis (%) Experiment I (SK-MEL-2 [9]): 35.4% | Apoptosis (%) Experiment I (SK-MEL-28): 1.1% | Apoptosis (%) Experiment I (SK-MEL-5 [10]): 1.9% | Apoptosis (%) Experiment I (UACC-257 [11]): 4.7% | Apoptosis (%) Experiment I (UACC-62 [12]): 8.3% | apoptosis (in words) [13, 16]: no apoptosis was observed; also recorded: did not induce apoptosis | cell cycle response [15]: induced G1 arrest | MAPK (ERK) activation (MAPK (ERK)): inhibited
